Legend:
yellow foxtail (SETLU) = test: Test 1 field trial, preemergence; assay type: in vivo, Setaria glauca; conditions: 56 DAA
Description: (§1) Corn seeds (hybrid ‘Pioneer 34N43’) were planted in mid spring season, 3.8 cm deep in a silt loam soil having 4.6% organic matter and a pH of 6. Plots were 10.7 m long by 1.5 m wide with rows spaced 76 cm apart. Seeds were spaced 18 cm apart within the rows. The field was managed using conventional tillage practices. […] Results are summarized in Table 1 and are the means of the three replicates. […] Colby's Equation (Colby, S. R. “Calculating Synergistic and Antagonistic Responses of Herbicide Combinations,” Weeds, 15(1), pp 20-22 (1967)) calculates the expected additive effect of herbicidal mixtures, and for two active ingredients is of the form:
(§2) Pa+b=Pa+Pb−(PaPb/100) • wherein Pa+b is the percentage effect of the mixture expected from additive contribution of the individual components, • Pa is the observed percentage effect of the first active ingredient at the same use rate as in the mixture, and • Pb is the observed percentage effect of the second active ingredient at the same use rate as in the mixture.

field pennycress (THLAR) = test: Test 1 field trial, preemergence; assay type: in vivo, Thlaspi arvense; conditions: 28 DAA
Description: as §1, §2

giant foxtail (SETFA) = test: Test 6 field trial, postemergence; assay type: in vivo, Setaria faberi
Description: Corn seeds (hybrid ‘Pioneer 35Y62’) were planted in mid spring season, 3.8 cm deep in a silt loam soil having 4% organic matter and a pH of 5.8. Plots were 10.7 m long by 1.5 m wide with rows spaced 76 cm apart. Seeds were spaced 18 cm apart within the rows. The field was managed using conventional tillage practices. […] All treatments included a surfactant except glufosinate treatments, both alone and in combination. […] Results are summarized in Table 6 and are the means of the three replicates.

redroot pigweed (AMARE) [1] = test: Test 8 field trial, preemergence; assay type: in vivo, Amaranthus retroflexus; conditions: 56 DAA
Description: (§3) Corn seeds (hybrid ‘Pioneer 31G96’) were planted in mid spring season, 3.8 cm deep in a clay loam soil having 2% organic matter and a pH of 6.6. Plots were 6.1 m long by 3.0 m wide with rows spaced 76 cm apart. Seeds were spaced 15 cm apart within the rows. The field was managed using conventional tillage practices. […] A few of the weed species could not be evaluated at every timing. […] Results are the means of the three replicates.

jimsonweed (DATST) = test: Test 8 field trial, preemergence; assay type: in vivo, Datura stramonium
Description: as §3

corn (ZEAMD) = test: Test 10 field trial, preemergence; assay type: in vivo, Zea mays ssp. indentata
Description: (§4) Corn seeds (hybrid ‘Pioneer 33P65 RR’) were planted in mid spring season, 2.5 cm deep in a silt loam soil. Plots were 9.1 m long by 3.0 m wide with rows spaced 76 cm apart. The field was managed using conventional tillage practices. […] Results are the means of the three replicates.

velvetleaf (ABUTH) = test: Test 10 field trial, preemergence; assay type: in vivo, Abutilon theophrasti; conditions: 28 DAA
Description: as §4

common waterhemp (AMATA) = test: Test 10 field trial, preemergence; assay type: in vivo, Amaranthus tamariscinus; conditions: 28 DAA
Description: as §4

southern sandbur (CCHEC) = test: Test 11 field trial, preemergence; assay type: in vivo, Cenchrus echinatus; design: scale not given here
Description: Corn seeds (hybrid ‘Pioneer 3041’) were planted in mid spring season, 5 cm deep in a clay soil having 2.6% organic matter and a pH of 5.6. Plots were 8 m long by 1.5 m wide with rows spaced 80 cm apart. Seeds were spaced 15 cm apart within the rows. The field was managed using conventional tillage practices. […] Treatments consisted of Compound 2 or
Goosegrass was not evaluated 16 or 91 days after application.

winter wheat (TRZAW) = test: Test 20 growth chamber, postemergence; assay type: in vivo, Triticum aestivum; conditions: 25 DAA
Method: A test was conducted to evaluate the effects on winter barley (HORVW, Hordeum vulgare L.) and winter wheat (TRZAW, Triticum aestivum L.) of mixtures of Compound 2 with the commercial herbicides (2,4-dichlorophenoxy)acetic acid (2,4-D) and (4-chloro-2-methylphenoxy)acetic acid (MCPA), auxin mimics. […] Plants were treated postemergence at the 2-leaf growth stage, and each treatment was replicated a total of four times (three times in the loam/sand blend and one time in RediEarth). […] Plants were watered as needed. […] Results are the means of the four replicates.

redroot pigweed (AMARE) [2] = test: Test 21 growth chamber, postemergence; assay type: in vivo, Amaranthus retroflexus; conditions: 19 DAA
Method: A test was conducted to evaluate the effects on winter barley (HORVW, Hordeum vulgare L.), winter wheat (TRZAW, Triticum aestivum L.), and several weed species, of mixtures of Compound 2 with the commercial herbicide (2,4-dichlorophenoxy)acetic acid (2,4-D), an auxin mimic. […] Plants were treated postemergence at the 2-4 leaf growth stage, and each treatment was replicated one time. […] Plants were watered as needed. […] Results are from single replicates.

[3] = g a.i./ha: Atrazine 1680, S-Metolachlor 1870
[4] = g a.i./ha: Cpd 2 100, Atrazine 1680, S-Metolachlor 1870
[5] = 19 DAA, g a.i./ha: Cpd 2 100, Atrazine 1680, S-Metolachlor 1870
[6] = 29 DAA, g a.i./ha: Cpd 2 100, Atrazine 1680, S-Metolachlor 1870
[7] = 56 DAA, g a.i./ha: Cpd 2 100, Atrazine 1680, S-Metolachlor 1870
[8] = 28 DAA, g a.i./ha: Cpd 2 100, Atrazine 1680, S-Metolachlor 1870
[9] = 16 DAA, Cpd 2/Cpd 1 at 62 g a.i./ha, alone or + atrazine 1500 or metolachlor 2500
[10] = 16 DAA, Cpd 2/Cpd 1 at 125 g a.i./ha, alone or + atrazine 1500 or metolachlor 2500
[11] = 30 DAA, Cpd 2/Cpd 1 at 62 g a.i./ha, alone or + atrazine 1500 or metolachlor 2500
[12] = 30 DAA, Cpd 2/Cpd 1 at 125 g a.i./ha, alone or + atrazine 1500 or metolachlor 2500
[13] = 44 DAA, Cpd 2/Cpd 1 at 62 g a.i./ha, alone or + atrazine 1500 or metolachlor 2500
[14] = 44 DAA, Cpd 2/Cpd 1 at 125 g a.i./ha, alone or + atrazine 1500 or metolachlor 2500
[15] = 62 DAA, Cpd 2/Cpd 1 at 62 g a.i./ha, alone or + atrazine 1500 or metolachlor 2500
[16] = 62 DAA, Cpd 2/Cpd 1 at 125 g a.i./ha, alone or + atrazine 1500 or metolachlor 2500
[17] = 91 DAA, Cpd 2/Cpd 1 at 62 g a.i./ha, alone or + atrazine 1500 or metolachlor 2500
[18] = 91 DAA, Cpd 2/Cpd 1 at 125 g a.i./ha, alone or + atrazine 1500 or metolachlor 2500
[19] = g a.i./ha: Cpd 2 50, S-Metolachlor 1870
[20] = g a.i./ha: Cpd 2 150, S-Metolachlor 1870

## CCNc1nc(Cl)nc(NC(C)C)n1 [Atrazine, atrazine, reference compound]
Yellow foxtail (SETLU); [3]
  SETLU Obs: 0
Field pennycress (THLAR); [3]
  THLAR Obs: 93
Giant foxtail (SETFA); 14 DAA, 1120 g a.i./ha
  SETFA Obs: 0%
Giant foxtail (SETFA); 28 DAA, 1120 g a.i./ha
  SETFA Obs: 0%
Redroot pigweed (AMARE) [1]; [4]
  AMARE Obs: 100%
Jimsonweed (DATST); [5]
  DATST Obs: 53%
Jimsonweed (DATST); [6]
  DATST Obs: 100%
Jimsonweed (DATST); [7]
  DATST Obs: 100%
Corn (ZEAMD); [8]
  ZEAMD Obs: 0%
Velvetleaf (ABUTH); [4]
  ABUTH Obs: 55%
Common waterhemp (AMATA); [4]
  AMATA Obs: 83%
Southern sandbur (CCHEC); 16 DAA, atrazine 1500 or metolachlor 2500 g a.i./ha alone
  CCHEC Obs: 60
Southern sandbur (CCHEC); 30 DAA, atrazine 1500 or metolachlor 2500 g a.i./ha alone
  CCHEC Obs: 40
Southern sandbur (CCHEC); 44 DAA, atrazine 1500 or metolachlor 2500 g a.i./ha alone
  CCHEC Obs: 40
Southern sandbur (CCHEC); 62 DAA, atrazine 1500 or metolachlor 2500 g a.i./ha alone
  CCHEC Obs: 0
Southern sandbur (CCHEC); 91 DAA, atrazine 1500 or metolachlor 2500 g a.i./ha alone
  CCHEC Obs: 0

## O=C(O)CNCP(=O)(O)O [Glyphosate]
Giant foxtail (SETFA); 14 DAA, 1120 g a.i./ha
  SETFA Obs: 100%
Giant foxtail (SETFA); 28 DAA, 1120 g a.i./ha
  SETFA Obs: 100%

## Nc1nc(C2CC2)nc(C(=O)O)c1Cl [Compound 1, 6-amino-5-chloro-2-cyclopropyl-4-pyrimidinecarboxylic acid]
Southern sandbur (CCHEC); [9]
  CCHEC Obs: 40
Southern sandbur (CCHEC); [10]
  CCHEC Obs: 40
Southern sandbur (CCHEC); [11]
  CCHEC Obs: 20
Southern sandbur (CCHEC); [12]
  CCHEC Obs: 20
Southern sandbur (CCHEC); [13]
  CCHEC Obs: 0
Southern sandbur (CCHEC); [14]
  CCHEC Obs: 40
Southern sandbur (CCHEC); [15]
  CCHEC Obs: 0
Southern sandbur (CCHEC); [16]
  CCHEC Obs: 0
Southern sandbur (CCHEC); [17]
  CCHEC Obs: 0
Southern sandbur (CCHEC); [18]
  CCHEC Obs: 0

## CCc1cccc(C)c1N(C(=O)CCl)[C@@H](C)COC [S-Metolachlor, S-metolachlor, reference compound]
Yellow foxtail (SETLU); [3]
  SETLU Obs: 100
Field pennycress (THLAR); [3]
  THLAR Obs: 58
Redroot pigweed (AMARE) [1]; [4]
  AMARE Obs: 100%
Jimsonweed (DATST); [5]
  DATST Obs: 40%
Jimsonweed (DATST); [6]
  DATST Obs: 38%
Jimsonweed (DATST); [7]
  DATST Obs: 52%
Corn (ZEAMD); [8]
  ZEAMD Obs: 0%
Velvetleaf (ABUTH); [4]
  ABUTH Obs: 37%
Common waterhemp (AMATA); [4]
  AMATA Obs: 70%

## COC(=O)c1nc(C2CC2)nc(N)c1Cl [Compound 2, methyl 6-amino-5-chloro-2-cyclopropyl-4-pyrimidinecarboxylate]
Yellow foxtail (SETLU); [19]
  SETLU Obs: 0
Yellow foxtail (SETLU); [4]
  SETLU Obs: 0
Yellow foxtail (SETLU); [20]
  SETLU Obs: 0
Field pennycress (THLAR); [19]
  THLAR Obs: 0
Field pennycress (THLAR); [4]
  THLAR Obs: 0
Field pennycress (THLAR); [20]
  THLAR Obs: 7
Giant foxtail (SETFA); 14 DAA, 30 g a.i./ha
  SETFA Obs: 0%
Giant foxtail (SETFA); 14 DAA, 60 g a.i./ha
  SETFA Obs: 0%
Giant foxtail (SETFA); 28 DAA, 30 g a.i./ha
  SETFA Obs: 0%
Giant foxtail (SETFA); 28 DAA, 60 g a.i./ha
  SETFA Obs: 0%
Redroot pigweed (AMARE) [1]; [19]
  AMARE Obs: 45%
Redroot pigweed (AMARE) [1]; [4]
  AMARE Obs: 100%
Redroot pigweed (AMARE) [1]; [20]
  AMARE Obs: 100%
Jimsonweed (DATST); 19 DAA, g a.i./ha: Cpd 2 50, S-Metolachlor 1870
  DATST Obs: 33%
Jimsonweed (DATST); [5]
  DATST Obs: 52%
Jimsonweed (DATST); 19 DAA, g a.i./ha: Cpd 2 150, S-Metolachlor 1870
  DATST Obs: 65%
Jimsonweed (DATST); 29 DAA, g a.i./ha: Cpd 2 50, S-Metolachlor 1870
  DATST Obs: 45%
Jimsonweed (DATST); [6]
  DATST Obs: 63%
Jimsonweed (DATST); 29 DAA, g a.i./ha: Cpd 2 150, S-Metolachlor 1870
  DATST Obs: 85%
Jimsonweed (DATST); 56 DAA, g a.i./ha: Cpd 2 50, S-Metolachlor 1870
  DATST Obs: 65%
Jimsonweed (DATST); [7]
  DATST Obs: 90%
Jimsonweed (DATST); 56 DAA, g a.i./ha: Cpd 2 150, S-Metolachlor 1870
  DATST Obs: 100%
Corn (ZEAMD); hybrid Pioneer 33P65 RR, corn (Zea mays ssp. indentata), in vivo, 28 days after application
  ZEAMD Obs: 0%
Velvetleaf (ABUTH); [19]
  ABUTH Obs: 7%
Velvetleaf (ABUTH); [4]
  ABUTH Obs: 7%
Velvetleaf (ABUTH); [20]
  ABUTH Obs: 13%
Common waterhemp (AMATA); [19]
  AMATA Obs: 20%
Common waterhemp (AMATA); [4]
  AMATA Obs: 10%
Common waterhemp (AMATA); [20]
  AMATA Obs: 23%
Southern sandbur (CCHEC); [9]
  CCHEC Obs: 0
Southern sandbur (CCHEC); [10]
  CCHEC Obs: 40
Southern sandbur (CCHEC); [11]
  CCHEC Obs: 0
Southern sandbur (CCHEC); [12]
  CCHEC Obs: 40
Southern sandbur (CCHEC); [13]
  CCHEC Obs: 0
Southern sandbur (CCHEC); [14]
  CCHEC Obs: 0
Southern sandbur (CCHEC); [15]
  CCHEC Obs: 0
Southern sandbur (CCHEC); [16]
  CCHEC Obs: 0
Southern sandbur (CCHEC); [17]
  CCHEC Obs: 0
Southern sandbur (CCHEC); [18]
  CCHEC Obs: 0
Winter wheat (TRZAW); Cpd 2 alone 4 g a.i./ha
  Postemergence TRZAW Obs: 23
Winter wheat (TRZAW); Cpd 2 alone 8 g a.i./ha
  Postemergence TRZAW Obs: 28
Winter wheat (TRZAW); Cpd 2 alone 16 g a.i./ha
  Postemergence TRZAW Obs: 35
Redroot pigweed (AMARE) [2]; Cpd 2 alone 16 g a.i./ha
  Postemergence AMARE Obs: 60

## O=C(O)COc1ccc(Cl)cc1Cl [2,4-D, (2,4-dichlorophenoxy)acetic acid]
Winter wheat (TRZAW); 2,4-D or MCPA alone 250 g a.i./ha
  Postemergence TRZAW Obs: 18
Redroot pigweed (AMARE) [2]; 2,4-D alone 125 g a.i./ha
  Postemergence AMARE Obs: 50
Redroot pigweed (AMARE) [2]; 2,4-D alone 250 g a.i./ha
  Postemergence AMARE Obs: 50
